We go through two substances from patent US12624068B2, “Exon skipping by peptide nucleic acid derivatives” (OliPass Corporation, priority 2016, dated 2026).

For one data set, the system named is SCN9A mRNA. The data set is described as follows: SCN9A nested qPCR by SYBR Green in PC3 cells. It counts as cell-based, human. Particulars: 24 hours. The protocol: “SCN-ASO 7” was evaluated for its ability to inhibit the expression of the human SCN9A mRNA in PC3 cells by qPCR against a set of exon-specific primers as follows. [Cell Culture & ASO Treatment] PC3 cells grown in 60 mm culture dish containing 5 mL culture medium were incubated with “SCN-ASO 7” for 24 hours at 0 (negative control), 10, 100 or 1,000 zM. (2 culture dishes per concentration) [RNA Extraction] […] [cDNA Synthesis by One Step RT-PCR] […] NO: 78); and SCN-exon 9_reverse: (5'→3') […] NO: 79)]. […] [Nested qPCR Amplification] […] NO: 80); SCN-exon 4_reverse: (5'→3') […] NO: 81); SCN-exon 5_forward: (5'→3') […] NO: 82); SCN-exon 5_reverse: (5'→3') […] NO: 83); SCN-exon 6_forward: (5'→3') […] NO: 84); SCN-exon 6_reverse: (5'→3') […] NO: 85)]. The PCR reactions were probed with SYBR Green (Takara, Japan). […] “SCN-ASO 3” was evaluated for its ability to inhibit the expression of the full-length SCN9A mRNA in PC3 cells according to the protocol described in “SCN9A Example 2”, unless noted otherwise. “SCN-ASO 8” was evaluated for its ability to inhibit the expression of the full-length SCN9A mRNA in PC3 cells according to the protocol described in “SCN9A Example 2”, unless noted otherwise.
A general note: In qPCR the cycle at which signal appears reflects the starting amount.

In data set [1] the test system is mouse dystrophin pre-mRNA. As to the kind of experiment: Dystrophin nested PCR (Method A) in muscles of mdx mice. It counts as in vivo. The protocol: “DMD-ASO 1” and “DMD-ASO 4” were evaluated for their ability to induce exon skipping in muscles of mdx mice by subcutaneous administration as follows. [ASO Treatment & Sampling Muscle Tissues] The injection solutions were prepared by diluting an aqueous mother stock solution of “DMD-ASO 1” or “DMD-ASO 4” in PBS to 500 nM. Male mdx mice were subcutaneously administered with vehicle only (negative control), “DMD-ASO 1” or “DMD-ASO 4” at 2 mL/Kg, 2× per day (BID) for 3 days. One day after the final dose, the animals were anesthetized with zoletil/rompun, and sacrificed to sample muscle tissues including the heart, diaphragm, gatrocnemius, quadriceps, and triceps. [RNA Extraction] Muscle samples were homogenized by grinding in a tube kept on ice, and subjected to total RNA extraction with 1 mL trizol reagent (Invitrogen) per ca 100 mg muscle tissue. [cDNA Synthesis by One-Step RT-PCR] 500 ng of RNA template was used in a 25 μL reverse transcription reaction using Super Script® One-Step RT-PCR kit with Platinum® Taq polymerase (Cat. Number 10928-042, Invitrogen) and a set of exon-specific primers [DMD-exon 21_forward: (5'→3') […] NO: 103); and DMD-exon 25_reverse: (5'→3') […] [Nested PCR Amplification] 1 μL of cDNA was further amplified in a 20 μL nested PCR (Cat. Number K2612, Bioneer) reaction against a set of primers [DMD-exon 22n_forward: (5'→3') […] NO: 105); and DMD-exon 25n_reverse: (5'→3') […] [Identification of Exon Skipping Product] The skipping of exon 23 was detected only in the animals treated with “DMD-ASO 1” and “DMD-ASO 4”. […] Mdx mice subcutaneously received “DMD-ASO 1” at 0 (negative control) or 10 pmole/Kg, 2× per day for 5 days. (2 animals per group) One day after the final dose, the animals were sacrificed for tissue sampling. The triceps samples were evaluated for the skipping of exon 23 according to the nested RT-PCR method described in “DMD Example 1”.

The subject of another data set is mdx mice. The data set is described as follows: Unscheduled death, sacrifice or lymphoma in chronically treated mdx mice. It counts as in vivo, mouse. The text has this:
[Grouping & ASO Treatment] Male mdx mice (7 weeks old) were randomly assigned to 4 groups of 0 (mdx negative control), 10, 50, and 200 pmole/Kg “DMD-ASO 1” based on individual grip strength scores by grip test. (N=12 per group) A satellite group of 12 male C57BL/6 mice (7 weeks old) was included in this study as the wild type negative control group for the full-length dystrophin expression level.
The 50 and 200 pmole/Kg group subcutaneously received “DMD-ASO 1” as dissolved in PBS, 2× per week until the final sacrifice in Week 43. In the meantime, the 10 pmole/Kg group subcutaneously received “DMD-ASO 1” initially 2× per week during Week 0 to 8, and 3× per week afterwards to increase the ASO exposure.
[Miscellaneous Findings] There were three cases of unscheduled sacrifice or death (Weeks 26, 39 and 43) in the mdx negative control group due to a large mass of muscular lymphoma developed most likely by chronic muscular inflammation.
“DMD-ASO 1”, “DMD-ASO 2” and “DMD-ASO 6” were evaluated for their physiological effects in male mdx mice by long term subcutaneous administration. In this evaluation the animals were not subjected to physical tests requiring muscular stress in order to keep the transcription of the dystrophin gene undisturbed by excessive muscular stimulation.
[Animals & Grouping] Male mdx mice (6 weeks old) were randomly assigned to 4 groups of the mdx negative control (no ASO treatment), “DMD-ASO 1” 50 pmole/Kg, “DMD-ASO 2” […], and “DMD-ASO 6” […] based on the body weight. (N=12-13 per group) 12 male C57BL/6 mice (6 weeks old) were adopted as the wild type (WT) negative control group.
[Injection Solutions & ASO Treatment] Aqueous mother stock solutions of the ASOs were serially diluted in PBS to prepare the injection solutions of 25 nM “DMD-ASO 1” for 50 pmole/Kg “DMD-ASO 1”, 5 nM “DMD-ASO 2” for “DMD-ASO 2” 10 pmole/Kg, and 5 nM “DMD-ASO 6” for “DMD-ASO 6” 10 pmole/Kg. The animals were subcutaneously administered with the injection solutions at 2 mL/Kg, 2× per week.

The test system of a further data set is serum myoglobin. As to the kind of experiment: Serum myoglobin level in mdx mice. It counts as in vivo. Particulars: DMD-ASO 1 50 pmole/Kg, DMD-ASO 2 or DMD-ASO 6 10 pmole/Kg, 2× per week, Week 66. The protocol:
[Terminal Sacrifice] In Week 48, the animals were subjected to terminal sacrifice for blood sampling. The blood samples were analyzed for the serum level of CK (Creatine Kinase Activity Assay Kit, Cat. Number ab155901, Abcam) and myoglobin (Myoglobin ELISA Kit, Cat. Number ab210965, Abcam) to assess the degree of muscle degradation according to the manufacturer's instructions. Muscle tissues were analyzed by western blot for the full-length dystrophin.
[Terminal Sacrifice] All the survived animals were sacrificed for blood sampling in Week 66 post the grouping. The blood samples were subjected to ELISA assays for serum creatine kinase (CK) and serum myoglobin as described in “DMD Example 6”.

[C(1O2)] = modified PNA monomer acting as cytosine, C(pOq) type, 1O2; [A(5)] = modified PNA monomer acting as adenine, A(p) type, p=5; [G(6)] = modified PNA monomer acting as guanine, G(p) type, p=6; {Fethoc} = N-terminal Fethoc cap; {NH2} = C-terminal amide

As for “Fethoc-AC(1O2)T-TA(5)C-G(6)CA-A(5)AA(5)-AC(1O2)A-A(5)-NH2 (ACTTACGCAAAAACAA; all peptide nucleic acid (PNA), [C(1O2)] at 2, 14, [A(5)] at 5, 10, 12, 16, [G(6)] at 7, 5' {Fethoc}, 3' {NH2}; peptide nucleic acid written N to C) [SCN-ASO 7]”, the “decrease of expression levels of SCN9A exons 4-6 (SYBR Green)” value in the data set on SCN9A mRNA (PC3 cells, 10 zM) is approximately 70%; in the data set with SCN9A mRNA (PC3 cells, 100 zM), 40%; in the data set with SCN9A mRNA (PC3 cells, 1,000 zM), 20-30%.

For “Fethoc-A(5)GA-G(6)CC(1O2)-TCA-A(5)AA(5)-T-NH2 (antisense AGAGCCTCAAAAT; Fethoc N-cap, C-terminal amide, chemistry not fully specified) [DMD-ASO 1]”, the “skipping of dystrophin exon 23 (nested PCR Method A)” value in data set [1] (subcutaneous 10 pmole/Kg, 2× per day for 5 days, triceps) is recorded as “induced the skipping of exon 23”; in data set [1] (subcutaneous 1,000 pmole/Kg BID for 3 days, quadriceps and gastrocnemius), “detected”. In the data set on mdx mice (DMD-ASO 1 50 pmole/Kg, DMD-ASO 2 or DMD-ASO 6 10 pmole/Kg, subcutaneous 2× per week, 66 weeks), the “premature deaths (unscheduled death or sacrifice)” value was “two premature deaths”. Also, the “cases of muscular lymphoma” value in the data set with mdx mice (chronic 10, 50 or 200 pmole/Kg up to Week 43) is “no cases of lymphoma”. The “serum myoglobin level smaller than the mdx negative control group by” value with serum myoglobin was 43%.
